In US9226929B2, “Pharmaceutically active disubstituted triazine derivatives” (Bayer Intellectual Property GMBH, priority 2011, dated 2016):

What was measured:
[1] = test system: NF-kappaB reporter gene activation; assay: NF-kappaB Reporter Assay; format: cell-based; settings: Homo sapiens; HEK293 cells, pNFkBluc reporter, 20 ng/ml TNF alpha, 5 h; read-out: NF-kappaB activation (activity range), IC50
Method: 3.2 NF-kappaB Reporter Assay
Cells were maintained in RPMI cell culture medium+glutamine (PAN Biotech GmbH, Aidenbach, Germany) supplemented with 10% fetal calf serum (PAA Laboratories GmbH, Pasching, Austria) and grown at 37° C., 5% CO2. HEK293 cells grown to 50% confluence were transfected with the Amaxa® Cell Line Nucleofector® Kit V (Lonza, Basel, Switzerland, catalog #VCA-1003). Transfections were performed according to manufacturer's optimized protocol for transfection of HEK293 cells. In brief, 2×10^5 cells were transfected with 5 μg highly purified plasmid DNA. Cells were transfected with a NF-kappa B reporter plasmid (pNFkBluc), pTALluc for control, or pMAXGFP for transfection control. After transfection, cells were taken up in 500 μL RPMI1640 cell culture medium, incubated for 1 h at 37° C., and 4.5 ml DMEM without phenol red were added per transfection. Transfected cells were seeded in 96 well plates (Greiner Bio-One, Frickenhausen, Germany, catalog #655098) with 100 μL cell suspension per well and incubated for 48 h. To each well, 100 μL DMEM with 2× concentrated compound diluted from 10 mM DMSO stocks, or 100 μL DMEM with 0.4% DMSO for control wells, was added. The compounds of general formula (I) summarized in Table 6 were used in this assay. Cells were stimulated with 20 ng/ml TNF alpha, and plates were incubated for 5 h at 37° C./5% CO2. Cell culture supernatants were removed to leave 100 μl medium per well, followed by addition of 100 μl Bright Glo luciferase assay reagent (Promega, Madison, Wis., USA, catalog #E2620), and shaking for 5 minutes in the dark. Luminescence was measured with a Victor Photospectrometer (Perkin Elmer, Waltham, Mass., USA). IC50 values were calculated with the software Excel Fit (IDBS, Guildford, UK) from 2-fold dilution series comprising at least 10 concentrations in duplicates.

CDK1/CyclinB1 = target: T1, CDK1/CyclinB1 (Homo sapiens, UniProt P06493); assay: Lance Ultra KinaSelect Assay, CDK1; format: biochemical; settings: ATP 20 μM; read-out: CDK1 LANCE assay (activity range), IC50
T1 construct: purchased Carna
T1 sequence (P06493 whole entry): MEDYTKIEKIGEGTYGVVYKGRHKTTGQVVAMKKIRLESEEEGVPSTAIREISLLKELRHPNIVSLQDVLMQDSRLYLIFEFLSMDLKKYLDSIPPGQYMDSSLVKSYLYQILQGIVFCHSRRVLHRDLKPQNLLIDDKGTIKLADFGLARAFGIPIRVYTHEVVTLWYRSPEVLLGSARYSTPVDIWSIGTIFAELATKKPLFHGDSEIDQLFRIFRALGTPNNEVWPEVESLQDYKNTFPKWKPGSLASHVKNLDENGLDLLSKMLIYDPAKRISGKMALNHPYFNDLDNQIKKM
T1 sequence (P14635 whole entry partner): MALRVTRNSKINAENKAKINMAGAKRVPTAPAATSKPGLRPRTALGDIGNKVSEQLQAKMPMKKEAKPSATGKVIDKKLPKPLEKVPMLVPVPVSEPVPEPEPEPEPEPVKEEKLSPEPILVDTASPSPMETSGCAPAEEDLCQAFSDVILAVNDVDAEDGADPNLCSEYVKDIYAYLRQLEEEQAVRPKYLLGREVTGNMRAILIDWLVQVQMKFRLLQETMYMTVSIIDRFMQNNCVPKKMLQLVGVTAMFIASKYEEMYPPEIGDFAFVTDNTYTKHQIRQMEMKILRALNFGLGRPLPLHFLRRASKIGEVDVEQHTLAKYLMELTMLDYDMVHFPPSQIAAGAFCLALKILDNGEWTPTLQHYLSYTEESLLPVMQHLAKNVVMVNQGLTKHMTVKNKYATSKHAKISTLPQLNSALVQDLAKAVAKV
Method: (§1) 2. Measurement of half maximal inhibitory concentration to CDKs This protocol describes how the Lance Ultra KinaSelect Assay was performed to determine half maximal inhibitory concentration (1050) of compounds of general formula (I) and CDK/Cyclin complexes. The principle behind this enzymatic assay is based upon the phosphorylation of the ULight-Peptide Substrat. It is detected by using a specific
(§2) EU-labeled anti-phospho peptide antibody. The binding of the Eu-labeled anti-phospho peptide antibody to the phosphorylated ULight labeled peptide gives rise to a FRET-signal. Binding of an inhibitor to the kinase prevents phosphorylation of the ULight-MBP Substrat, resulting in a loss of FRET.
(§3) The compounds of general formula (I) summarized in Table 5 were diluted from a 10 mM DMSO stock solution 1:10 in a total volume of 15 μL DMSO. This compound predilution was then serial diluted 1:3 over 8 steps in DMSO and briefly spun down. Each compound solution was now diluted 1:20 in Enzymatic Buffer (HEPES: 50 mM, pH: 7.5; MgCl2: 10 mM; EGTA: 1 mM; DTT: 2 mM; Tween-20: 0.01%), mixed thoroughly and spun down. For every sample, 2 μL of the diluted compound were mixed with 6 μL CDK/Cyclin/Substrat solution and 2 μL ATP solution in a well of a small volume 384 well plate (Corning Incorporated, Corning, N.Y., USA; order no. 3673). The CDK/Cyclin was diluted to the appropriate concentration (see Table 3) and the ATP concentration was adjusted to its […] for the CDK/Cyclin, which was 3 μM for CDK2/Cyclin A, 20 μM for CDK1/Cyclin B1, 25 μM for CDK7/Cyclin H and CDK9/Cyclin T1, 55 μM for CDK6/Cyclin D3, 90 μM for CDK4/Cyclin D1 and 125 μM for CDK9/Cyclin K. For negative controls, in each well 2 μL of DMSO solution (1% final DMSO assay concentration) was mixed with 6 μL substrate solution (50 nM ULight MBP final assay concentration) and 2 μL ATP solution (appropriate final concentration see Table 3). For positive controls, in each well 2 μL of DMSO solution (1% final DMSO assay concentration) was mixed with 6 μL CDK/Cyclin/Substrat (appropriate final concentration see Table 3) and 2 μL Tracer ATP solution (appropriate final concentration see Table 3). Positive and negative controls were calculated from at least 8 different sample wells. The 384 well plates were mixed in a Teleshaker plate mixer (Beckman Coulter, Brea, Calif., USA) at 2000 rpm for 40 sec, and incubated for 1 h at room temperature. Before reading, 10 μL the detection buffer (Lance Detection Buffer 1×; EDTA: […]; Eu-Anti-P-MBP: see Table 3) was added. The FRET signal was measured at 340 nm excitation, 665 nm and 615 nm emission (for the kinase tracer and LanthaScreen Eu-AB, respectively) with an Envision spectrophotometer (Perkin Elmer, Waltham, Mass., USA) with 50 μs delay and 300 μs integration time. IC50 values were determined from the sigmoidal dose response curves with the software Quattro Workflow (Quattro GmbH, Munich, Germany).

CDK6/CyclinD3 = target: T2, CDK6/CyclinD3 (Homo sapiens, UniProt Q00534); assay: Lance Ultra KinaSelect Assay, CDK6; format: biochemical; settings: ATP 55 μM; read-out: CDK6 LANCE assay (activity range), IC50
T2 construct: purchased Carna
T2 sequence (Q00534 whole entry): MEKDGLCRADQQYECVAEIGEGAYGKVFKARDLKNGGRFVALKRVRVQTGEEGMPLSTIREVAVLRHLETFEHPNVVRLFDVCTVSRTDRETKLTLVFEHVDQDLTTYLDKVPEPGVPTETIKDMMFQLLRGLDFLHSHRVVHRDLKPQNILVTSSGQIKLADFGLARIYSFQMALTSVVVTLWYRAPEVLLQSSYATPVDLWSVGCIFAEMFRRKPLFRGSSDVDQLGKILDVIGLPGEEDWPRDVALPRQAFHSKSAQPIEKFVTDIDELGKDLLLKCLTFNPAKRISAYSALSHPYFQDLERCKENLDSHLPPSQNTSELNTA
T2 sequence (P30281 whole entry partner): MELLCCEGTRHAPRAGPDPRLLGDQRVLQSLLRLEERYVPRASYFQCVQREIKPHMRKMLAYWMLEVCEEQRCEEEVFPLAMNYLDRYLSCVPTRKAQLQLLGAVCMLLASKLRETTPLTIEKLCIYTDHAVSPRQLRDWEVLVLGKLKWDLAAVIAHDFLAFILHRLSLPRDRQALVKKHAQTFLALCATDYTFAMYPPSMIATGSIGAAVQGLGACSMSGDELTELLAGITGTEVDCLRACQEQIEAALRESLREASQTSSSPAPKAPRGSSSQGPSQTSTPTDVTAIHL
Method: as §1, §2, §3

| SMILES | IC50 [1] | IC50 (CDK1/CyclinB1) | IC50 (CDK6/CyclinD3) |
| --- | --- | --- | --- |
| COC(=O)[C@H]1CCCN1c1ncnc(Nc2cccc(CS(N)(=O)=O)c2)n1 [Compound B21, (R)-Methyl 1-[4-((3-(Sulfamoylmethyl)phenyl)amino)-1,3,5-triazin-2-yl]pyrrolidine-2-carboxylate] | > 10 µM |  |  |
| COC[C@H]1CCCN1c1ncnc(Nc2cccc(CS(N)(=O)=O)c2)n1 [Compound B17, (R)-3-[(4-(2-(Methoxymethyl)pyrrolidin-1-yl)-1,3,5-triazin-2-yl)amino]benzenemethanesulfonamide] | > 10 µM | 1 to 10 µM | > 10 µM |
| NS(=O)(=O)Cc1cccc(Nc2ncnc(N3CCCC3c3ccccc3)n2)c1 (racemic) [Compound B33, rac-3-[(4-(2-Phenylpyrrolidin-1-yl)-1,3,5-triazin-2-yl)amino]-benzenemethanesulfonamide] | 1 to 10 µM | 1 to 10 µM | > 10 µM |
| NS(=O)(=O)Cc1cccc(Nc2ncnc(N3CCCCC3)n2)c1 [Compound B1, 3-[(4-(Piperidin-1-yl)-1,3,5-triazin-2-yl)amino]benzenemethane sulfonamide] | > 10 µM | > 10 µM | > 10 µM |

The next lines start with the values.

| IC50 [1] | IC50 (CDK1/CyclinB1) | IC50 (CDK6/CyclinD3) | SMILES |
| --- | --- | --- | --- |
| 1 to 10 µM | 0.1 to 1 µM | > 10 µM | NS(=O)(=O)Cc1cccc(Nc2ncnc(N3CCc4ncccc4C3)n2)c1 [Compound B38, 3-[(4-(7,8-Dihydro-1,6-naphthyridin-6(5H)-yl)-1,3,5-triazin-2-yl)amino]-benzenemethanesulfonamide] |
|  | 1 to 10 µM | > 10 µM | NS(=O)(=O)Cc1cccc(Nc2ncnc(N3Cc4cn[nH]c4C3)n2)c1 [Compound B51, 3-[(4-(Pyrrolo[3,4-c]pyrazol-5(1H,4H,6H)-yl)-1,3,5-triazin-2-yl)amino]-benzenemethanesulfonamide] |
| 1 to 10 µM | 0.1 to 1 µM | 1 to 10 µM | NS(=O)(=O)Cc1cccc(Nc2ncnc(N3CCCn4nccc43)n2)c1 [Compound B47, 3-[(4-(6,7-Dihydropyrazolo[1,5-a]pyrimidin-4(5H)-yl)-1,3,5-triazin-2-yl)amino]benzenemethanesulfonamide] |
